In series [1] the test system is Puccinia recondita f. sp. tritici. Kind of series: Fungicidal activity against Puccinia recondita f. sp. tritici, wheat, leaf disc preventative (brown rust). In kind it is in vivo. The following applies: foliar, wheat leaf segments, preventative (inoculated 1 day after application), 7-9 days after application, compared to untreated control. The gist of the method: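 Wheat cv. Kanzler leaf segments on water agar sprayed with compound (DMSO stock diluted in water), then inoculated with spore suspension 1 day later. Incubated at 19 °C, 75% rh, 12 h light/12 h dark; percent disease control versus untreated scored at 7-9 days after application.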

Series [2] concerns Glomerella lagenarium (Colletotrichum lagenarium). The series can be described thus: Fungicidal activity against Glomerella lagenarium (Colletotrichum lagenarium), liquid culture, cucumber, preventative (anthracnose). In kind it is cell-based. The following applies: Colletotrichum orbiculare, liquid culture (PDB), growth inhibition measured photometrically 3-4 days after application, compared to untreated control. The gist of the method: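 Glomerella lagenarium conidia in potato dextrose broth were exposed in 96-well plates to test compound diluted from DMSO stock with 0.025% Tween20 and incubated at 24 °C. Growth inhibition was read photometrically 3–4 days after application, as percent activity relative to untreated check.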

Series [3] concerns Phakopsora pachyrhizi. Kind of series: Fungicidal activity against Phakopsora pachyrhizi, soybean, leaf disc preventative (Asian soybean rust). In kind it is in vivo. The following applies: foliar, 288 h, 12-14 days after application, compared to untreated control. An outline of the steps:
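Soybean leaf discs on water agar were sprayed with compound diluted in water, then inoculated one day later with a spore suspension on the lower leaf surface. After 24-36 h dark at 20 °C, 75% rh, discs were held at 20 °C, 12 h light/day. Percent disease control versus untreated assessed 12-14 days post-application.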

The subject of series [4] is Puccinia recondita f. sp. tritici. The series can be described thus: Fungicidal activity against Puccinia recondita f. sp. tritici, wheat, leaf disc curative (brown rust). In kind it is in vivo. The settings on record: foliar, 144 h, wheat leaf segments, curative (applied 1 day after inoculation), 6-8 days after application, compared to untreated control. An outline of the steps: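 Wheat cv. Kanzler leaf segments on agar, inoculated with brown rust spores and kept dark at 19 °C, 75% rh; formulated compound sprayed 1 day after inoculation (curative). Incubated 19 °C, 75% rh, 12 h light/dark; percent disease control vs untreated scored 6–8 days after application.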

This note sets out measurements from patent publication US10640497B2, “Microbiocidal oxadiazole derivatives” (SYNGENTA PARTICIPATIONS AG, priority 2015, dated 2020).

Where only a bound is given, the exact number is not on record here.

On to `O=C1CCON1Cc1ccc(-c2noc(C(F)(F)F)n2)cc1` [Compound A-5, 2-[[4-[5-(trifluoromethyl)-1,2,4-oxadiazol-3-yl]phenyl]methyl]isoxazolidin-3-one], for which the melting point is 54 to 58 °C. The compound also displayed a pest or weed control at 200 ppm in series [1] not below 80%. For the same compound, in series [2], the inhibition of growth at 20 ppm was not below 80%. Moreover, the pest or weed control at 200 ppm in series [3] was not below 80%. The pest or weed control at 200 ppm in series [4] was not below 80%.
`CC1CCN(Cc2ccc(-c3noc(C(F)(F)F)n3)cc2)C1=O` (stereo not shown) [Compound A-7, 3-methyl-1-[[4-[5-(trifluoromethyl)-1,2,4-oxadiazol-3-yl]phenyl]methyl]pyrrolidin-2-one] gave a melting point of 83 to 88 °C. The compound further registered a pest or weed control at 200 ppm in series [1] not below 80%. The same compound showed an inhibition of growth at 20 ppm in series [2] not below 80%. In series [3], this compound came in with a pest or weed control at 200 ppm not below 80%. The pest or weed control at 200 ppm in series [4] is not below 80%.
Compound `O=C1C2C=CC(C2)N1Cc1ccc(-c2noc(C(F)(F)F)n2)cc1` (stereo not shown) [Compound A-9, 3-[[4-[5-(trifluoromethyl)-1,2,4-oxadiazol-3-yl]phenyl]methyl]-3-azabicyclo[2.2.1]hept-5-en-2-one] gave a melting point of 50 to 53 °C. The pest or weed control at 200 ppm in series [1] was not below 80%. In series [2], this compound displayed an inhibition of growth at 20 ppm not below 80%. Moreover, the pest or weed control at 200 ppm in series [3] is not below 80%. In series [4], the pest or weed control at 200 ppm was not below 80%.
Compound `O=C1CCCN1Cc1ccc(-c2noc(C(F)(F)F)n2)cc1F` [Compound A-22, 1-[[2-fluoro-4-[5-(trifluoromethyl)-1,2,4-oxadiazol-3-yl]phenyl]methyl]pyrrolidin-2-one] gave a melting point of 55 to 60 °C. For the same compound, the pest or weed control at 200 ppm in series [1] was not below 80%. This compound also came in with an inhibition of growth at 20 ppm in series [2] not below 80%. This compound also had a pest or weed control at 200 ppm in series [3] not below 80%. In series [4], this compound displayed a pest or weed control at 200 ppm not below 80%.
The compound `CN1CC(=O)N(Cc2ccc(-c3noc(C(F)(F)F)n3)cc2)CC1=O` [Compound A-26, 1-methyl-4-[[4-[5-(trifluoromethyl)-1,2,4-oxadiazol-3-yl]phenyl]methyl]piperazine-2,5-dione] showed a melting point of 134 to 142 °C. Also, the pest or weed control at 200 ppm in series [1] is not below 80%. The same compound yielded an inhibition of growth at 20 ppm in series [2] not below 80%. The compound also showed a pest or weed control at 200 ppm in series [3] not below 80%. For the same compound, the pest or weed control at 200 ppm in series [4] is not below 80%.
In the case of `CC(C)(C)OC(=O)N1CCN(Cc2ccc(-c3noc(C(F)(F)F)n3)cc2)C(=O)C1` [Compound A-30, tert-butyl 3-oxo-4-[[4-[5-(trifluoromethyl)-1,2,4-oxadiazol-3-yl]phenyl]methyl]piperazine-1-carboxylate], the melting point lay in the range of 96 to 99 °C. Further, the pest or weed control at 200 ppm in series [1] is not below 80%. Besides, in series [2], the inhibition of growth at 20 ppm was not below 80%. Moreover, in series [4], the pest or weed control at 200 ppm was not below 80%.
`CNC(=O)N1CCN(Cc2ccc(-c3noc(C(F)(F)F)n3)cc2)C(=O)C1` [Compound A-33, N-methyl-3-oxo-4-[[4-[5-(trifluoromethyl)-1,2,4-oxadiazol-3-yl]phenyl]methyl]piperazine-1-carboxamide] displayed a melting point of 114 to 118 °C. The compound also yielded a pest or weed control at 200 ppm in series [1] not below 80%. This compound also yielded an inhibition of growth at 20 ppm in series [2] not below 80%. This compound came in with a pest or weed control at 200 ppm in series [3] not below 80%. Further, in series [4], the pest or weed control at 200 ppm was not below 80%.
As for `CN(C)C(=O)N1CCN(Cc2ccc(-c3noc(C(F)(F)F)n3)cc2)C(=O)C1` [Compound A-34, N,N-dimethyl-3-oxo-4-[[4-[5-(trifluoromethyl)-1,2,4-oxadiazol-3-yl]phenyl]methyl]piperazine-1-carboxamide], the melting point lay within 111 to 114 °C. Moreover, the pest or weed control at 200 ppm in series [1] was not below 80%. The inhibition of growth at 20 ppm in series [2] is not below 80%. The compound further displayed a pest or weed control at 200 ppm in series [3] not below 80%. This compound yielded a pest or weed control at 200 ppm in series [4] not below 80%.
In turn, `COCCNC(=O)N1CCN(Cc2ccc(-c3noc(C(F)(F)F)n3)cc2)C(=O)C1` [Compound A-38, N-(2-methoxyethyl)-3-oxo-4-[[4-[5-(trifluoromethyl)-1,2,4-oxadiazol-3-yl]phenyl]methyl]piperazine-1-carboxamide] had a melting point of 120 to 128 °C. For the same compound, in series [1], the pest or weed control at 200 ppm was not below 80%. The same compound had a pest or weed control at 200 ppm in series [3] not below 80%. The pest or weed control at 200 ppm in series [4] was not below 80%.
The compound `O=C1CCCCN1Cc1ccc(-c2noc(C(F)(F)F)n2)nc1` [Compound A-53, 1-[[6-[5-(trifluoromethyl)-1,2,4-oxadiazol-3-yl]-3-pyridyl]methyl]piperidin-2-one] came in with a melting point of 80 to 89 °C. Further, the pest or weed control at 200 ppm in series [1] is not below 80%. This compound also had a pest or weed control at 200 ppm in series [4] not below 80%.
On to `CCOC(=O)N1CC(=O)N(Cc2ccc(-c3noc(C(F)(F)F)n3)cc2)C(=O)C1` [Compound A-57, ethyl 3,5-dioxo-4-[[4-[5-(trifluoromethyl)-1,2,4-oxadiazol-3-yl]phenyl]methyl]piperazine-1-carboxylate], for which the melting point is 89 to 92 °C. For the same compound, the pest or weed control at 200 ppm in series [1] was not below 80%. This compound also gave an inhibition of growth at 20 ppm in series [2] not below 80%. For the same compound, the pest or weed control at 200 ppm in series [3] was not below 80%.
In turn, `CNC(=O)N1CC(=O)N(Cc2ccc(-c3noc(C(F)(F)F)n3)cc2)C(=O)C1` [Compound A-58, N-methyl-3,5-dioxo-4-[[4-[5-(trifluoromethyl)-1,2,4-oxadiazol-3-yl]phenyl]methyl]piperazine-1-carboxamide] registered a melting point of 148 to 153 °C. In series [1], this compound registered a pest or weed control at 200 ppm not below 80%. This compound also returned an inhibition of growth at 20 ppm in series [2] not below 80%. This compound gave a pest or weed control at 200 ppm in series [3] not below 80%.
In turn, `CC(C)(C)OC(=O)N1CC(=O)N(Cc2ccc(-c3noc(C(F)(F)F)n3)cc2)C(=O)C1` [Compound A-62, tert-butyl 3,5-dioxo-4-[[4-[5-(trifluoromethyl)-1,2,4-oxadiazol-3-yl]phenyl]methyl]piperazine-1-carboxylate] gave a melting point of 94 to 102 °C. In series [1], the pest or weed control at 200 ppm is not below 80%. The compound also yielded an inhibition of growth at 20 ppm in series [2] not below 80%.
In turn, `O=C1CNC(=O)N1Cc1ccc(-c2noc(C(F)(F)F)n2)cc1` [Compound A-65, 3-[[4-[5-(trifluoromethyl)-1,2,4-oxadiazol-3-yl]phenyl]methyl]imidazolidine-2,4-dione] displayed a melting point of 200 to 203 °C. Also, the pest or weed control at 200 ppm in series [1] is not below 80%. The compound also displayed an inhibition of growth at 20 ppm in series [2] not below 80%. This compound also gave a pest or weed control at 200 ppm in series [3] not below 80%.
`O=C1CCON1Cc1ccc(-c2noc(C(F)(F)F)n2)c(F)c1F` [Compound A-66, 2-[[2,3-difluoro-4-[5-(trifluoromethyl)-1,2,4-oxadiazol-3-yl]phenyl]methyl]isoxazolidin-3-one]: the pest or weed control at 200 ppm in series [1], in series [3] and in series [4] was not below 80% each time. Moreover, the inhibition of growth at 20 ppm in series [2] is not below 80%.
In the case of `O=C1CCON1Cc1c(F)cc(-c2noc(C(F)(F)F)n2)cc1F` [Compound A-67, 2-[[2,6-difluoro-4-[5-(trifluoromethyl)-1,2,4-oxadiazol-3-yl]phenyl]methyl]isoxazolidin-3-one], the melting point lay within 75 to 80 °C. Moreover, the inhibition of growth at 20 ppm in series [2] was not below 80%. Also, the pest or weed control at 200 ppm in series [3] is not below 80%. In series [4], this compound had a pest or weed control at 200 ppm not below 80%.
`O=C1CCCCCN1Cc1ccc(-c2noc(C(F)(F)F)n2)c(F)c1` [Compound A-69, 1-[[3-fluoro-4-[5-(trifluoromethyl)-1,2,4-oxadiazol-3-yl]phenyl]methyl]azepan-2-one] displayed a melting point of 80 to 84 °C. In series [1], this compound returned a pest or weed control at 200 ppm not below 80%. This compound also had an inhibition of growth at 20 ppm in series [2] not below 80%.
With `O=C1CCCCCN1Cc1ccc(-c2noc(C(F)(F)F)n2)cc1` [Compound A-70, 1-[[4-[5-(trifluoromethyl)-1,2,4-oxadiazol-3-yl]phenyl]methyl]azepan-2-one], the pest or weed control at 200 ppm in series [1], in series [3] and in series [4] was not below 80% in each case. In addition, the inhibition of growth at 20 ppm in series [2] is not below 80%.
`CON1CCN(c2ccc(-c3noc(C(F)(F)F)n3)cc2)C1=O` [Compound C-3, 1-methoxy-3-[4-[5-(trifluoromethyl)-1,2,4-oxadiazol-3-yl]phenyl]imidazolidin-2-one] showed a melting point of 185 to 190 °C. In series [2], this compound gave an inhibition of growth at 20 ppm not below 80%.
In the case of `O=S1(=O)CCCN1c1ccc(-c2noc(C(F)(F)F)n2)cc1` [Compound D-1, 2-[4-[5-(trifluoromethyl)-1,2,4-oxadiazol-3-yl]phenyl]-1,2-thiazolidine 1,1-dioxide], the pest or weed control at 200 ppm in series [1], in series [3] and in series [4] was not below 80% each time. The same compound gave an inhibition of growth at 20 ppm in series [2] not below 80%.
